IC50 data for 23 compounds are collected here from US20160159816A1, “SUBSTITUTED THIENOPYRIMIDINES AND PHARMACEUTICAL USE THEREOF” (BAYER PHARMA AKTIENGESELLSCHAFT, priority 2013, published 2016).

pIC50: −log10 of the molar value.

T1 sequence (Q9BUB5 1-424 isoform Q9BUB5-2 T344D): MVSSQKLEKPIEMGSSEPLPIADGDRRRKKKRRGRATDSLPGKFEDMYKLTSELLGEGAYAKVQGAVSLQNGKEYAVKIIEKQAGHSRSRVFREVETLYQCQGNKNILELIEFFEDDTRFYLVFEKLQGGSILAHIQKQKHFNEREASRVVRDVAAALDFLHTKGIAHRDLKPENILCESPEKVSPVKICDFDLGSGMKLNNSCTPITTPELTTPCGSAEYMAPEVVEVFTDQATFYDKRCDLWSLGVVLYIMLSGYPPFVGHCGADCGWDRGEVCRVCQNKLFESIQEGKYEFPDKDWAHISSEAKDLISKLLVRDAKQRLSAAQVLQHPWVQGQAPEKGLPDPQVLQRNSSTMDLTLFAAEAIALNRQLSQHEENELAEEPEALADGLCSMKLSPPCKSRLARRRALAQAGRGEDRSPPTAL

This assay addresses T1, human full-length MKNK1 (Homo sapiens, UniProt Q9BUB5, T385D).
T1 construct: GST (N); purchased Carna Biosciences 02-145; host or cells: insect cells, baculovirus expression system
The assay can be described thus: MKNK1 kinase high ATP assay (TR-FRET). The format is biochemical. The conditions noted are these: high ATP (2 mM), after preincubation with MKNK1; compounds of the present invention (Table 1a). On the procedure: MKNK1-inhibitory activity at high ATP of compounds of the present invention after their preincubation with MKNK1 was quantified employing the TR-FRET-based MKNK1 high ATP assay as described in the following paragraphs.
A recombinant fusion protein of Glutathione-S-Transferase (GST, N-terminally) and human full-length MKNK1 (amino acids 1-424 and T344D of accession number BAA 19885.1), expressed in insect cells using baculovirus expression system and purified via glutathione sepharose affinity chromatography, was purchased from Carna Biosciences (product no 02-145) and used as enzyme. As substrate for the kinase reaction the biotinylated peptide biotin-Ahx-IKKRKLTRRKSLKG (C-terminus in amide form) was used, which can be purchased e.g. from the company Biosyntan (Berlin-Buch, Germany).
For the assay 50 nL of a 100 fold concentrated solution of the test compound in DMSO was pipetted into a black low volume 384 well microtiter plate (Greiner Bio-One, Frickenhausen, Germany), 2 μL of a solution of MKNK1 in aqueous assay buffer [50 mM HEPES pH 7.5, 5 mM MgCl2, 1.0 mM dithiothreitol, 0.005% (v/v) Nonidet-P40 (Sigma)] was added and the mixture was incubated for 15 min at 22° C. to allow pre-binding of the test compounds to the enzyme before the start of the kinase reaction. Then the kinase reaction was started by the addition of 3 μL of a solution of adenosine-tri-phosphate (ATP, 3.3 mM=>final conc. in the 5 μL assay volume is 2 mM) and substrate (0.1 μM=>final conc. in the 5 μL assay volume is 0.06 μM) in assay buffer and the resulting mixture was incubated for a reaction time of 30 min at 22° C. The concentration of MKNK1 was adjusted depending of the activity of the enzyme lot and was chosen appropriate to have the assay in the linear range, typical concentrations were in the range of 0.003 μg/mL. The reaction was stopped by the addition of 5 μL of a solution of TR-FRET detection reagents (5 nM streptavidine-XL665 [Cisbio Bioassays, Codolet, France] and 1 nM anti-ribosomal protein […] (pSer236)-antibody from Invitrogen [#44921G] and 1 nM LANCE EU-W1024 labeled ProteinG [Perkin-Elmer, product no. AD0071]) in an aqueous EDTA-solution (100 mM EDTA, 0.1% (w/v) bovine serum albumin in 50 mM HEPES pH 7.5).
The resulting mixture was incubated for 1 h at 22° C. to allow the formation of complex between the phosphorylated biotinylated peptide and the detection reagents. Subsequently the amount of phosphorylated substrate was evaluated by measurement of the resonance energy transfer from the Eu-chelate to the streptavidine-XL. Therefore, the fluorescence emissions at 620 nm and 665 nm after excitation at 350 nm were measured in a TR-FRET reader, e.g. a Rubystar (BMG Labtechnologies, Offenburg, Germany) or a Viewlux (Perkin-Elmer). The ratio of the emissions at 665 nm and at […] was taken as the measure for the amount of phosphorylated substrate. The data were normalised (enzyme reaction without inhibitor=0% inhibition, all other assay components but no enzyme=100% inhibition). […] Table 1a lists MKNK1 high ATP IC50 values of some compounds of the present invention.
For orientation: TR-FRET usually uses a lanthanide donor and a delayed reading to cut background.
By pIC50 is commonly meant the negative decadic logarithm of the IC50, by convention in mol/L. High values mean a small IC50, low ones a large IC50. The compound `COCC1(OC)CCc2c(sc3ncnc(Nc4cc5cn[nH]c5cc4C)c23)C1` (racemic) [Example 29, (RS)-7-methoxy-7-(methoxymethyl)-N-(6-methyl-1H-indazol-5-yl)-5,6,7,8-tetrahydro[1]benzothieno[2,3-d]pyrimidin-4-amine] showed a pIC50 of 6.01. The value for `COCC1(OC)CCc2c(sc3ncnc(Nc4cc5cn[nH]c5cc4F)c23)C1` (racemic) [Example 30, (RS)—N-(6-Fluoro-1H-indazol-5-yl)-7-methoxy-7-(methoxymethyl)-5,6,7,8-tetrahydro[1]benzothieno[2,3-d]pyrimidin-4-amine] was 7.05; that for `COCC1(OC)CCc2c(sc3ncnc(Nc4cc5cn[nH]c5cc4Cl)c23)C1` (racemic) [Example 31, (RS)—N-(6-Chloro-1H-indazol-5-yl)-7-methoxy-7-(methoxymethyl)-5,6,7,8-tetrahydro[1]benzothieno[2,3-d]pyrimidin-4-amine] was 6.83. The value for `COCC1(OC)CCc2c(sc3ncnc(Nc4cc5cn[nH]c5cc4OC)c23)C1` (racemic) [Example 32, (RS)-7-Methoxy-N-(6-methoxy-1H-indazol-5-yl)-7-(methoxymethyl)-5,6,7,8-tetrahydro[1]benzothieno[2,3-d]pyrimidin-4-amine] was 8.04; that for `CN(C)C1CCc2c(sc3ncnc(Nc4ccc5[nH]ncc5c4)c23)C1` (racemic) [Example 35, (RS)—N^4-(1H-Indazol-5-yl)-N^7,N^7-dimethyl-5,6,7,8-tetrahydro[1]benzothieno[2,3-d]pyrimidine-4,7-diamine] was 6.66; that for `COc1cc2[nH]ncc2cc1Nc1ncnc2sc3c(c12)CCC(N(C)C)C3` (racemic) [Example 36, (RS)—N^4-(6-Methoxy-1H-indazol-5-yl)-N^7,N^7-dimethyl-5,6,7,8-tetrahydro[1]benzothieno[2,3-d]pyrimidine-4,7-diamine] was 7.85. In turn, `COCC1(OC)CCc2c(sc3ncnc(Nc4ccc5[nH]ncc5c4)c23)C1` (racemic) [Example 37, (7RS)—N-(1H-Indazol-5-yl)-7-methoxy-7-(methoxymethyl)-5,6,7,8-tetrahydro[1]benzothieno[2,3-d]pyrimidin-4-amine] gave a negative-log IC50 (pIC50) of 7.32.

Take `OCc1cnnn1C[C@@H]1CCc2c(sc3ncnc(Nc4ccc5[nH]ncc5c4)c23)C1` (single isomer, unassigned) [Example 33, (1-{[(7R or 7S)-4-(1H-Indazol-5-ylamino)-5,6,7,8-tetrahydro[1]benzothieno[2,3-d]pyrimidin-7-yl]methyl}-1H-1,2,3-triazol-5-yl)methanol]: the pIC50 was 7.77. In turn, `OCc1cn(C[C@@H]2CCc3c(sc4ncnc(Nc5ccc6[nH]ncc6c5)c34)C2)nn1` (single isomer, unassigned) [Example 34, (1-{[(7R or 7S)-4-(1H-Indazol-5-ylamino)-5,6,7,8-tetrahydro[1]benzothieno[2,3-d]pyrimidin-7-yl]methyl}-1H-1,2,3-triazol-4-yl)methanol] had a pIC50 of 7.69. The value for `COCC1(OC)CCc2c(sc3ncnc(Nc4ccc5[nH]ncc5c4)c23)C1` (single isomer, unassigned) [Example 38, (7R) or (7S) N-(1H-Indazol-5-yl)-7-methoxy-7-(methoxymethyl)-5,6,7,8-tetrahydro[1]benzothieno[2,3-d]pyrimidin-4-amine] was 6.97. In turn, `COCC1(OC)CCc2c(sc3ncnc(Nc4ccc5[nH]ncc5c4)c23)C1` (single isomer, unassigned) [Example 39, (7S) or (7R) N-(1H-Indazol-5-yl)-7-methoxy-7-(methoxymethyl)-5,6,7,8-tetrahydro[1]benzothieno[2,3-d]pyrimidin-4-amine] had a negative logarithm of the IC50 (pIC50) of 7.16.

As to `COCC1(OC)CCc2c(sc3ncnc(Nc4cc5cn[nH]c5cc4C)c23)C1` (single isomer, unassigned) [Example 40, (7R) or (7S) 7-Methoxy-7-(methoxymethyl)-N-(6-methyl-1H-indazol-5-yl)-5,6,7,8-tetrahydro[1]benzothieno[2,3-d]pyrimidin-4-amine], the pIC50 was 6.31. This pIC50 lies 0.85 log units lower than the previous one. `COCC1(OC)CCc2c(sc3ncnc(Nc4cc5cn[nH]c5cc4C)c23)C1` (single isomer, unassigned) [Example 41, (7S) or (7R) 7-Methoxy-7-(methoxymethyl)-N-(6-methyl-1H-indazol-5-yl)-5,6,7,8-tetrahydro[1]benzothieno[2,3-d]pyrimidin-4-amine] gave a pIC50 of 6.43. The pIC50 values of the last two compounds are within 0.2 log units of each other. The value for `COCC1(OC)CCc2c(sc3ncnc(Nc4cc5cn[nH]c5cc4OC)c23)C1` (single isomer, unassigned) [Example 42, (7R) or (7S) 7-Methoxy-N-(6-methoxy-1H-indazol-5-yl)-7-(methoxymethyl)-5,6,7,8-tetrahydro[1]benzothieno[2,3-d]pyrimidin-4-amine] was 8.00.

The compound `COCC1(OC)CCc2c(sc3ncnc(Nc4cc5cn[nH]c5cc4OC)c23)C1` (single isomer, unassigned) [Example 43, (7S) or (7R) 7-Methoxy-N-(6-methoxy-1H-indazol-5-yl)-7-(methoxymethyl)-5,6,7,8-tetrahydro[1]benzothieno[2,3-d]pyrimidin-4-amine] showed a negative logarithm of the IC50 (pIC50) of 7.90.

Compound `COCC1(OC)CCc2c(sc3ncnc(Nc4cc5cn[nH]c5cc4F)c23)C1` (single isomer, unassigned) [Example 44, (7R) or (7S) N-(6-Fluoro-1H-indazol-5-yl)-7-methoxy-7-(methoxymethyl)-5,6,7,8-tetrahydro[1]benzothieno[2,3-d]pyrimidin-4-amine] showed a pIC50 of 7.13. The value for `COCC1(OC)CCc2c(sc3ncnc(Nc4cc5cn[nH]c5cc4F)c23)C1` (single isomer, unassigned) [Example 45, (7S) or (7R) N-(6-Fluoro-1H-indazol-5-yl)-7-methoxy-7-(methoxymethyl)-5,6,7,8-tetrahydro[1]benzothieno[2,3-d]pyrimidin-4-amine] was 7.05; that for `COCC1(OC)CCc2c(sc3ncnc(Nc4cc5cn[nH]c5cc4Cl)c23)C1` (single isomer, unassigned) [Example 46, (7R) or (7S) N-(6-Chloro-1H-indazol-5-yl)-7-methoxy-7-(methoxymethyl)-5,6,7,8-tetrahydro[1]benzothieno[2,3-d]pyrimidin-4-amine] was 7.05; that for `COCC1(OC)CCc2c(sc3ncnc(Nc4cc5cn[nH]c5cc4Cl)c23)C1` (single isomer, unassigned) [Example 47, (7S) or (7R) N-(6-Chloro-1H-indazol-5-yl)-7-methoxy-7-(methoxymethyl)-5,6,7,8-tetrahydro[1]benzothieno[2,3-d]pyrimidin-4-amine] was 6.78. `COc1cc2[nH]ncc2cc1Nc1ncnc2sc3c(c12)CCCC3` [Example 2, N-(6-methoxy-1H-indazol-5-yl)-5,6,7,8-tetrahydro[1]benzothieno[2,3-d]pyrimidin-4-amine] had a pIC50 of 7.87. The result for `c1nc(Nc2ccc3[nH]ncc3c2)c2c3c(sc2n1)CCCC3` [Example 3, N-(1H-Indazol-5-yl)-5,6,7,8-tetrahydro[1]benzothieno[2,3-d]pyrimidin-4-amine] reads 7.73.

Turning to `COc1cc2[nH]ncc2cc1Nc1ncnc2sc3c(c12)CCC1(C3)OCCO1` [Example 24, N-(6-Methoxy-1H-indazol-5-yl)-5,8-dihydro-6H-spiro[1-benzothieno[2,3-d]pyrimidine-7,2′-[1,3]dioxolan]-4-amine], the pIC50 is 8.32. This pIC50 lies 0.59 log units higher than the previous one. The result for `COc1cc2[nH]ncc2cc1Nc1ncnc2sc3c(c12)CC[C@](C)(C(=O)N(C)C)C3` [Example 48, (7S) 4-[(6-Methoxy-1H-indazol-5-yl)amino]-N,N,7-trimethyl-5,6,7,8-tetrahydro[1]benzothieno[2,3-d]pyrimidine-7-carboxamide] reads 8.62.
